# d = 2'-deoxy (DNA)
# Key:
# CaCC current = target: T1, CaCC current (Homo sapiens, UniProt Q5XXA6); assay: Whole-cell patch-clamp of CaCC currents in PDAC cells, 1 μM Ca2+ in pipette solution; format: cell-based; details: for decrease of CaCC currents: siRNA 50 nM, compared to scrambled siRNA (MOCK)
# T1 construct: Whole-cell patch-clamp recordings identified large Ca^2+ and voltage-dependent Cl^− currents in PDAC cells; endogenous in cells; host or cells: Capan-1, AsPC-1, BxPC-3 (human PDAC cell lines, ATCC)
# T1 sequence (Q5XXA6 1-986): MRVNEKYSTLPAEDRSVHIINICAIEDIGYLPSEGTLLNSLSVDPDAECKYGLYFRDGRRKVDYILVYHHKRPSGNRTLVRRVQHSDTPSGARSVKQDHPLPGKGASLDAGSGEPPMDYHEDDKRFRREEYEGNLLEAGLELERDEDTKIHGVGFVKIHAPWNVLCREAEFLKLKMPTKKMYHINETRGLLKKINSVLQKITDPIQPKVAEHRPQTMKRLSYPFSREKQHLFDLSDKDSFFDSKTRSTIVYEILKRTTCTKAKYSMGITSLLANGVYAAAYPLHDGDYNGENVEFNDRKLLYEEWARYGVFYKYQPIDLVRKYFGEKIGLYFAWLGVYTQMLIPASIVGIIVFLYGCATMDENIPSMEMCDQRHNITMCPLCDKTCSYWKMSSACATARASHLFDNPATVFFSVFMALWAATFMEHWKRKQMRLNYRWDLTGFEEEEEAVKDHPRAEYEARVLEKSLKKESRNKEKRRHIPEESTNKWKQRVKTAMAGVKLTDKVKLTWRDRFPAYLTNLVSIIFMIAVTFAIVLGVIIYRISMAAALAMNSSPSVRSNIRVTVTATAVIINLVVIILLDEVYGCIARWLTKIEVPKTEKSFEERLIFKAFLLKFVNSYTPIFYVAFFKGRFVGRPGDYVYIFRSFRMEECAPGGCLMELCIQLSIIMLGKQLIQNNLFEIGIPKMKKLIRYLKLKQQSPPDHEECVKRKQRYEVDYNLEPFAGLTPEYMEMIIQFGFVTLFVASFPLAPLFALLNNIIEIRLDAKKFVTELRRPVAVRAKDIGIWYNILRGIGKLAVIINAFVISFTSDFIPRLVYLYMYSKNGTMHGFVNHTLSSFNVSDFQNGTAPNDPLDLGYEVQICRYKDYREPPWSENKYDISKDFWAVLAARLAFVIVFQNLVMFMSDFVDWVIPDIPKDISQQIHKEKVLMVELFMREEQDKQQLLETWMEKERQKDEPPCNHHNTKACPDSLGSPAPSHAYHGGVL
# Description: Cells were grown on poly-L-lysine coated coverslips. For knockdown experiments, cells were transfected with siRNA targeting ANO1 or scrambled siRNA shortly after complete attachment of the cells (approx. 3 h after plating). Currents were measured 36–48 h after transfection. Whole-cell patch-clamp recordings were performed using the Axopatch 200B amplifier interfaced to a Digidata 1440A controlled by pClamp10 software (Molecular Devices, USA). Analogue signals were acquired at 2.5 kHz and filtered at 1 kHz. […] An agar bridge made of 3 % agar and 97 % of the bath solution containing NMDG-Cl (below) was used as reference electrode. Current activations were recorded from an output holding potential, V out = 0 mV with ramp protocols spanning from −100 to 100 mV over 1 s and run continuously with 15-s intervals. Step protocols between −100 to 120 mV were generated from V out = 0 mV with step increments of 20 mV and lengths of 2 s. Liquid junction potentials (V lj) were estimated as described in [10] with membrane potentials calculated as, V m = V out − V lj. Series resistance was compensated by 60–70 %. All recordings were performed at room temperature (18–23 °C). Instantaneous currents were measured 1 ms after each voltage step. The data was fitted using the Goldman–Hodgkin–Katz (GHK) current equation.1 ICl^−=Pz^2F^2V/RTCo−Cie^zFV/RT/1−e^zFV/RT
# One micromolar free Ca^2+ pipette solution include the following (in mM): 100 CsAsp, 40 CsCl, 4.34 CaCl2, 4 Na2ATP, 1 MgCl2, 5 EGTA, 10 HEPES, pH 7.2, osmolality 295 mosmol/kg or 0 μM free Ca^2+ solution containing no CaCl2 and 10 mM EGTA. Standard bath solution include the following (in mM): 150 NaCl, 1.5 CaCl2, 1 MgCl2, 10 glucose, 10 HEPES, pH 7.4, osmolality 315 mosmol/kg (adjusted with D-mannitol). Isotonic solution include the following (in mM): 85 NaCl, 2 MgCl2, 1.5 CaCl2, 10 glucose, 10 HEPES, pH 7.4, of osmolality 315 mosmol/kg (adjusted with D-mannitol). The hypotonic solution with osmolality of 210 mosmol/kg was obtained by omitting D-mannitol from the isotonic solution. For experiments testing efficiency of an inhibitor, NaCl was replaced by N-methyl-D-glucamine chloride (NMDG-Cl) after seal formation. All osmolalities were measured in a Wescor Vapro model 5520 osmometer (Wescor Inc., USA) calibrated by the manufacturer’s Optimol standard solutions.
# Whole-cell patch-clamp recordings with 1 μM Ca^2+ in pipette solution. a Representative current traces measured in Capan-1 cells upon exposure to different inhibitors. b Quantification of CaCC currents at +67 mV recorded with inhibitors compared to currents in presence of DMSO; currents of siANO1 cells were compared to those of MOCK transfected cells. c Steady-state I–V relationships of cells transfected with either scrambled siRNA (MOCK) or siRNA targeting ANO1. d Densitometric quantification of Western blot analysis of siRNA knockdown. β-Actin was used as a loading control. (n) = number of individual experiments
# [1] = tested on: HPDE, Capan-1, AsPC-1, and BxPC-3 cells; assay: BrdU incorporation cell proliferation assay, all tested cell lines; format: cell-based, human
# Description: To assess cell proliferation and apoptosis, cells were plated in duplicates on a 96-well plate and incubated in 100 μl of the cell line appropriate media described above. Cells were transfected with siRNA soon after complete attachment (approx. 3 h after seeding). Cells were treated with vehicle, 20 μM gemcitabine, 20 μM T16Ainh-A01, or 10 μM free NS3728 (see below) after culture in a humidified 37 °C and 5 % CO2 incubator overnight. BrdU incorporation was measured using Cell Proliferation ELISA, BrdU (chemiluminescent) (Roche Diagnostics A/S, Denmark) following the manufacturer’s instructions. Caspases 3, 6, and 7 activation was evaluated using Homogeneous Caspases Assay (fluorimetric) (Roche Diagnostics A/S, Denmark).
# Fig. 7 VRAC, but not ANO1, regulates cellular proliferation. a Summary of BrdU incorporation in HPDE, Capan-1, AsPC-1, and BxPC-3 cells after various treatments as indicated. Cells were transfected shortly after complete attachment (approx. 3 h) and BrdU incorporation was assessed 36 h after transfection. To investigate effect of inhibitors, cells were incubated for 24 h with respective inhibitor. Values shown are relative to appropriate control. Data shown represents mean ± s.e.m. of n = 4–6 individual experiments. **p ≤ 0.01 and ***p ≤ 0.001 when compared with control
"inhibition at 20 µM (CaCC current; ASPC1, AsPC-1 cells, inhibitor 20 μM, at +67 mV, vs DMSO)","inhibition of CaCC current (CaCC current; BxPC-3 cells, inhibitor 20 μM, at +67 mV, vs DMSO)","inhibition at 20 µM (CaCC current; Capan-1 cells, inhibitor 20 μM, at +67 mV, vs DMSO)",Molecule,"proliferation (BrdU incorporation) ([1]; ANO1-overexpressing cancer cells, 20 μM, 24 h)",decrease of CaCC currents (CaCC current; AsPC-1 cells),decrease of CaCC currents (CaCC current; BxPC-3 cells),decrease of CaCC currents (CaCC current; Capan-1 cells),"proliferation (BrdU incorporation) ([1]; siRNA 50 nM vs mock 5 nM, 36 h after transfection, any of the tested cell lines)"
29 ± 2%,ineffective,43 ± 8%,"CCc1c(C)nc(SCC(=O)Nc2nc(-c3ccc(OC)cc3)cs2)[nH]c1=O [T16Ainh-A01, 2-[(5-Ethyl-1,6-dihydro-4-methyl-6-oxo-2-pyrimidinyl)thio]-N-[4-(4-methoxyphenyl)-2-thiazolyl]acetamide]",none of the ANO1-overexpressing cancer cells showed any significant decrease in proliferation,–,–,–,–
–,–,–,"siRNA targeting ANO1: Predesigned siRNA oligo from Sigma-Aldrich, 5′-CCUUCAACGUCAGUGACUU[dT][dT]-3′, 5′-AAGUCACUGACGUUGAAGG[dT][dT]-3′ (RNA, 3' dTdT, backbone not given here)",–,89 ± 51%,84 ± 23%,88 ± 42%,did not cause any significant change in proliferation

# Source: article PMC4464647, “ANO1 (TMEM16A) in pancreatic ductal adenocarcinoma (PDAC)” (Pflugers Archiv, 2014)
